In patent publication US20150218172A1, “Pyrrolo[2,3-D]Pyrimidine Tropomyosin-Related Kinase Inhibitors” (PFIZER LIMITED, priority 2012, published 2015):
pIC50: −log10 of the molar value.

What follows are molecules tested against T1, TrkA (Homo sapiens, UniProt P04629) (assay: Isolated TRK enzyme assay (HTRF KinEASE-TK kit), PV3144 TrkA enzyme assay). Settings: PV3144 TrkA enzyme assay, recombinant His-tagged cytoplasmic domain aa 441-796, 4 nM enzyme, 40 uM ATP; arithmetic mean where more than one reading; read-out: Trka enzyme (IC50).
T1 construct: aa 441-796; His; purchased Invitrogen PV3144
T1 sequence (P04629 441-796): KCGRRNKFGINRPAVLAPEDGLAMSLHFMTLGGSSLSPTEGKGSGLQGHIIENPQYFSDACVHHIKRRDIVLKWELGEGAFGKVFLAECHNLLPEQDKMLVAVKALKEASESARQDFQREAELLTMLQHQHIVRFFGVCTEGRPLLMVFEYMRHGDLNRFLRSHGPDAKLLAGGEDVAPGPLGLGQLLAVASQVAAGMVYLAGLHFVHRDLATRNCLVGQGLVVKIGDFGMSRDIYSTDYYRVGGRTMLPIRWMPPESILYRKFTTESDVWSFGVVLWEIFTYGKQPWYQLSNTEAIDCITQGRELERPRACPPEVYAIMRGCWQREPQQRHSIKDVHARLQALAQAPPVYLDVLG
Format: biochemical
Method in brief: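 Recombinant His-tagged cytoplasmic domain of human TrkA, preactivated with ATP for 20 min, then 20 min with compound before biotinylated TK substrate (1 uM final) at room temperature. HTRF read at 665/620 nm; % inhibition normalised to reference-compound and DMSO controls, IC50 from sigmoid fit, mean of replicates.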

| pIC50 | Compound |
| --- | --- |
| 6.12 | Cc1cc(C)n(CC(=O)Nc2cc(C(=O)c3cn(CCO)c4ncncc34)ccn2)n1 [Example 139, 2-(3,5-dimethyl-1H-pyrazol-1-yl)-N-(4-{[7-(2-hydroxyethyl)-7H-pyrrolo[2,3-d]pyrimidin-5-yl]carbonyl}pyridin-2-yl)acetamide] |
| 6.65 | O=C(Cc1ccc(F)cc1F)Nc1cc(C(=O)c2cn(CCO)c3ncncc23)ccn1 [Example 140, 2-(2,4-difluorophenyl)-N-(4-{[7-(2-hydroxyethyl)-7H-pyrrolo[2,3-d]pyrimidin-5-yl]carbonyl}pyridin-2-yl)acetamide] |
| 7.79 | O=C(Cc1ccc(C(F)(F)F)cc1)Nc1cc(C(=O)c2cn(CCO)c3ncncc23)ccn1 [Example 141, N-(4-{[7-(2-hydroxyethyl)-7H-pyrrolo[2,3-d]pyrimidin-5-yl]carbonyl}pyridin-2-yl)-2-[4-(trifluoromethyl)phenyl]acetamide] |
| 7.53 | O=C(Cc1ccc(C(F)(F)F)c(F)c1)Nc1cc(C(=O)c2cn(CCO)c3ncncc23)ccn1 [Example 142, 2-[3-fluoro-4-(trifluoromethyl)phenyl]-N-(4-{[7-(2-hydroxyethyl)-7H-pyrrolo[2,3-d]pyrimidin-5-yl]carbonyl}pyridin-2-yl)acetamide] |
| 6.57 | N#Cc1ccc(CC(=O)Nc2cc(C(=O)c3cn(CCO)c4ncncc34)ccn2)cc1 [Example 143, 2-(4-cyanophenyl)-N-(4-{[7-(2-hydroxyethyl)-7H-pyrrolo[2,3-d]pyrimidin-5-yl]carbonyl}pyridin-2-yl)acetamide] |
| 6.95 | O=C(Cc1ccc(OC(F)(F)F)cc1)Nc1cc(C(=O)c2cn(CCO)c3ncncc23)ccn1 [Example 144, N-(4-{[7-(2-hydroxyethyl)-7H-pyrrolo[2,3-d]pyrimidin-5-yl]carbonyl}pyridin-2-yl)-2-[4-(trifluoromethoxy)phenyl]acetamide] |
| 6.32 | O=C(Cc1ccc(F)cc1)Nc1cc(C(=O)c2cn(CCO)c3ncncc23)ccn1 [Example 145, 2-(4-fluorophenyl)-N-(4-{[7-(2-hydroxyethyl)-7H-pyrrolo[2,3-d]pyrimidin-5-yl]carbonyl}pyridin-2-yl)acetamide] |
| 6.61 | O=C(Cc1cccc(Cl)c1)Nc1cc(C(=O)c2cn(CCO)c3ncncc23)ccn1 [Example 146, 2-(3-chlorophenyl)-N-(4-{[7-(2-hydroxyethyl)-7H-pyrrolo[2,3-d]pyrimidin-5-yl]carbonyl}pyridin-2-yl)acetamide] |
| 7.79 | Cc1cc(C(F)(F)F)nn1CC(=O)Nc1cc(C(=O)c2cn(C(C)C)c3ncncc23)ccn1 [Example 147, 2-[5-methyl-3-(trifluoromethyl)-1H-pyrazol-1-yl]-N-(4-{[7-(propan-2-yl)-7H-pyrrolo[2,3-d]pyrimidin-5-yl]carbonyl}pyridin-2-yl)acetamide] |
| 6.73 | CC(C)c1ccnn1CC(=O)Nc1cc(C(=O)c2cn(C(C)C)c3ncncc23)ccn1 [Example 148, 2-[5-(propan-2-yl)-1H-pyrazol-1-yl]-N-(4-{[7-(propan-2-yl)-7H-pyrrolo[2,3-d]pyrimidin-5-yl]carbonyl}pyridin-2-yl)acetamide] |
| 6.77 | CC(C)n1cc(C(=O)c2ccnc(NC(=O)Cc3ccccc3)c2)c2cncnc21 [Example 149, 2-phenyl-N-(4-{[7-(propan-2-yl)-7H-pyrrolo[2,3-d]pyrimidin-5-yl]carbonyl}pyridin-2-yl)acetamide] |
| 7.07 | CC(C)n1cc(C(=O)c2ccnc(NC(=O)Cc3ccc(Cl)cc3)c2)c2cncnc21 [Example 150, 2-(4-chlorophenyl)-N-(4-{[7-(propan-2-yl)-7H-pyrrolo[2,3-d]pyrimidin-5-yl]carbonyl}pyridin-2-yl)acetamide] |
| 7.67 | Cc1cc(C(C)C)nn1CC(=O)Nc1cc(C(=O)c2cn(C(C)C)c3ncncc23)ccn1 [Example 151, 2-[5-methyl-3-(propan-2-yl)-1H-pyrazol-1-yl]-N-(4-{[7-(propan-2-yl)-7H-pyrrolo[2,3-d]pyrimidin-5-yl]carbonyl}pyridin-2-yl)acetamide] |
| 7.15 | Cc1cc(C)n(CC(=O)Nc2cc(C(=O)c3cn(C(C)C)c4ncncc34)ccn2)n1 [Example 152, 2-(3,5-dimethyl-1H-pyrazol-1-yl)-N-(4-{[7-(propan-2-yl)-7H-pyrrolo[2,3-d]pyrimidin-5-yl]carbonyl}pyridin-2-yl)acetamide] |
| 7.38 | CC(C)n1cc(C(=O)c2ccnc(NC(=O)Cc3ccc(F)cc3)c2)c2cncnc21 [Example 153, 2-(4-fluorophenyl)-N-(4-{[7-(propan-2-yl)-7H-pyrrolo[2,3-d]pyrimidin-5-yl]carbonyl}pyridin-2-yl)acetamide] |
| 7.91 | CC(C)n1cc(C(=O)c2ccnc(NC(=O)Cc3cccc(OC(F)(F)F)c3)c2)c2cncnc21 [Example 154, N-(4-{[7-(propan-2-yl)-7H-pyrrolo[2,3-d]pyrimidin-5-yl]carbonyl}pyridin-2-yl)-2-[3-(trifluoromethoxy)phenyl]acetamide] |
| 7.84 | CC(C)n1cc(C(=O)c2ccnc(NC(=O)Cc3cccc(Cl)c3)c2)c2cncnc21 [Example 155, 2-(3-chlorophenyl)-N-(4-{[7-(propan-2-yl)-7H-pyrrolo[2,3-d]pyrimidin-5-yl]carbonyl}pyridin-2-yl)acetamide] |
| 5.97 | CC(C)n1cc(C(=O)c2ccnc(NC(=O)Cn3ccnc3)c2)c2cncnc21 [Example 156, 2-(1H-imidazol-1-yl)-N-(4-{[7-(propan-2-yl)-7H-pyrrolo[2,3-d]pyrimidin-5-yl]carbonyl}pyridin-2-yl)acetamide] |
| 7.81 | CC(C)n1cc(C(=O)c2ccnc(NC(=O)Cc3ccc(Cl)cc3Cl)c2)c2cncnc21 [Example 157, 2-(2,4-dichlorophenyl)-N-(4-{[7-(propan-2-yl)-7H-pyrrolo[2,3-d]pyrimidin-5-yl]carbonyl}pyridin-2-yl)acetamide] |
| 5.87 | CC(C)n1cc(C(=O)c2ccnc(NC(=O)Cn3cccn3)c2)c2cncnc21 [Example 158, N-(4-{[7-(propan-2-yl)-7H-pyrrolo[2,3-d]pyrimidin-5-yl]carbonyl}pyridin-2-yl)-2-(1H-pyrazol-1-yl)acetamide] |
| 7.27 | CC(C)n1cc(C(=O)c2ccnc(NC(=O)Cc3ccccc3Cl)c2)c2cncnc21 [Example 159, 2-(2-chlorophenyl)-N-(4-{[7-(propan-2-yl)-7H-pyrrolo[2,3-d]pyrimidin-5-yl]carbonyl}pyridin-2-yl)acetamide] |
| 7.06 | Cc1ccnn1CC(=O)Nc1cc(C(=O)c2cn(C(C)C)c3ncncc23)ccn1 [Example 160, 2-(5-methyl-1H-pyrazol-1-yl)-N-(4-{[7-(propan-2-yl)-7H-pyrrolo[2,3-d]pyrimidin-5-yl]carbonyl}pyridin-2-yl)acetamide] |
| 7.22 | COc1ccc(CC(=O)Nc2cc(C(=O)c3cn(C(C)C)c4ncncc34)ccn2)cc1 [Example 161, 2-(4-methoxyphenyl)-N-(4-{[7-(propan-2-yl)-7H-pyrrolo[2,3-d]pyrimidin-5-yl]carbonyl}pyridin-2-yl)acetamide] |
| 5.01 | Cc1nccn1CC(=O)Nc1cc(C(=O)c2cn(C(C)C)c3ncncc23)ccn1 [Example 162, 2-(2-methyl-1H-imidazol-1-yl)-N-(4-{[7-(propan-2-yl)-7H-pyrrolo[2,3-d]pyrimidin-5-yl]carbonyl}pyridin-2-yl)acetamide] |
